In patent US6476189B1, “Antibacterial peptides and antibacterial agents containing such peptides as an effective ingredient” (National Institute of Agrobiological Sciences, priority 1998, dated 2002):
Converted amounts (≈) assume the structure as drawn. Blank lines part the entries; values can stand above or below the compound they belong to. Residues, ends and D or L forms follow the SMILES beside them.

Columns and labels:
Format in all cases: cell-based
[1] = system: Pseudomonas aeruginosa
Description: (§1) Minimum Inhibitory Concentration (MIC) of these antibacterial peptides (1) to (5) against Staphylococcus aureus, methicillin resistant Staphylococcus aureus (MRSA), Escherichia coli and Pseudomonas aeruginosa was determined.

[2] = system: Staphylococcus aureus
Description: as §1

[3] = system: methicillin resistant Staphylococcus aureus (MRSA)
Description: as §1

- MIC P. aeruginosa [1]: >15 µg/mL
- MIC S. aureus [2]: 5 µg/mL (≈ 4.56 µM)
SMILES: CC[C@H](C)[C@H](NC(=O)[C@H](C)NC(=O)[C@H](CC(C)C)NC(=O)[C@H](CCCNC(=N)N)NC(=O)[C@H](CC(C)C)NC(=O)[C@H](C)N)C(=O)N[C@@H](CCCNC(=N)N)C(=O)N[C@@H](CCCCN)C(=O)N[C@@H](CCCNC(=N)N)C(N)=O [present peptide (1), Ala-Leu-Arg-Leu-Ala-Ile-Arg-Lys-Arg-NH2] (H-ALRLAIRKR-NH2; N-terminus assumed)

- MIC P. aeruginosa [1]: 4 µg/mL (≈ 3.55 µM)
- MIC S. aureus [2]: 3 µg/mL (≈ 2.67 µM)
- MIC MRSA [3]: 25 µg/mL (≈ 22.2 µM)
SMILES: CC[C@H](C)[C@H](NC(=O)[C@H](C)NC(=O)[C@H](CC(C)C)NC(=O)[C@H](CC(C)C)NC(=O)[C@H](Cc1c[nH]c2ccccc12)NC(=O)[C@H](C)N)C(=O)N[C@@H](CCCNC(=N)N)C(=O)N[C@@H](CCCCN)C(=O)N[C@@H](CCCNC(=N)N)C(N)=O [present peptide (3), Ala-Trp-Leu-Leu-Ala-Ile-Arg-Lys-Arg-NH2] (H-AWLLAIRKR-NH2; N-terminus assumed)

- MIC P. aeruginosa [1]: 4 µg/mL (≈ 3.63 µM)
- MIC S. aureus [2]: 2 µg/mL (≈ 1.81 µM)
- MIC MRSA [3]: 30 µg/mL (≈ 27.2 µM)
SMILES: CC[C@H](C)[C@H](NC(=O)[C@H](C)NC(=O)[C@H](CC(C)C)NC(=O)[C@H](Cc1ccc(O)cc1)NC(=O)[C@H](CC(C)C)NC(=O)[C@H](C)N)C(=O)N[C@@H](CCCNC(=N)N)C(=O)N[C@@H](CCCCN)C(=O)N[C@@H](CCCNC(=N)N)C(N)=O [present peptide (4), Ala-Leu-Tyr-Leu-Ala-Ile-Arg-Lys-Arg-NH2]

Continued, compound first:

SMILES: CC[C@H](C)[C@H](NC(=O)[C@H](C)NC(=O)[C@H](CC(C)C)NC(=O)[C@H](CC(C)C)NC(=O)[C@H](CC(C)C)NC(=O)[C@H](C)N)C(=O)N[C@@H](CCCNC(=N)N)C(=O)N[C@@H](CCCCN)C(=O)N[C@@H](CCCNC(=N)N)C(N)=O [present peptide (2), Ala-Leu-Leu-Leu-Ala-Ile-Arg-Lys-Arg-NH2] (H-ALLLAIRKR-NH2; N-terminus assumed)
- MIC P. aeruginosa [1]: 4 µg/mL (≈ 3.8 µM)
- MIC S. aureus [2]: 4 µg/mL (≈ 3.8 µM)
- MIC MRSA [3]: 40 µg/mL (≈ 38 µM)

SMILES: CC[C@H](C)[C@H](NC(=O)[C@H](C)NC(=O)[C@H](CC(C)C)NC(=O)[C@H](Cc1c[nH]c2ccccc12)NC(=O)[C@H](CC(C)C)NC(=O)[C@H](C)N)C(=O)N[C@@H](CCCNC(=N)N)C(=O)N[C@@H](CCCCN)C(=O)N[C@@H](CCCNC(=N)N)C(N)=O [present peptide (5), Ala-Leu-Trp-Leu-Ala-Ile-Arg-Lys-Arg-NH2] (H-ALWLAIRKR-NH2; N-terminus assumed)
- MIC P. aeruginosa [1]: 10 µg/mL (≈ 8.89 µM)
- MIC S. aureus [2]: 4 µg/mL (≈ 3.55 µM)
- MIC MRSA [3]: 40 µg/mL (≈ 35.5 µM)
